# Assay results taken from patent publication US11084800B2 (Achillion Pharmaceuticals, Inc., priority 2017, dated 2021).
# Target: Human Factor D (Homo sapiens (Human), UniProt P00746)
# Assay: Human Factor D Assay
# Format: biochemical
# Details: Factor D inhibition, assay of Example 10; read-out: IC5 (Stars)
# How it was run: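 Thioester substrate Z-L-Lys-SBz (100 μM) with Ellman's reagent DTNB (100 μM) reports activity of 80 nM human serum-derived enzyme, kinetically at 405 nm over 30 min. Compound preincubated 5 min, room temperature, pH 7.5 Tris/1 M NaCl; IC50 by nonlinear fit of rates.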
# Chain of Human Factor D (P00746 26-253): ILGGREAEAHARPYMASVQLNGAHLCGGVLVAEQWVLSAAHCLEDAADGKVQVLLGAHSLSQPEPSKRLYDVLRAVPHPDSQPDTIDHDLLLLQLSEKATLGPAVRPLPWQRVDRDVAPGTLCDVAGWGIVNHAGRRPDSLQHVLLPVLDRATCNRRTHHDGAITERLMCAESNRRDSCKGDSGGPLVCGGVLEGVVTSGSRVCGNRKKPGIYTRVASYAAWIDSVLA
row,Structure (SMILES),IC50
1,"CC(=O)c1cn(CC(=O)N2[C@H](C(=O)Nc3nc(Br)ccc3C)C[C@@]3(C)C[C@@H]23)c2c(C)nc(-c3cnc(C)nc3)cc12 [Compound 472, (1R,3S,5R)-2-(2-(3-Acetyl-7-methyl-5-(2-methylpyrimidin-5-yl)-1H-pyrrolo[2,3-c]pyridin-1-yl)acetyl)-N-(6-bromo-3-methylpyridin-2-yl)-5-methyl-2-azabicyclo[3.1.0]hexane-3-carboxamide]",< 1 µM
2,"CCNC(=O)c1nn(CC(=O)N2[C@H](C(=O)Nc3nc(Br)ccc3C)C[C@@]3(C)C[C@@H]23)c2ccc(-c3cnc(C)nc3)cc12 [Compound 474, 1-{2-[(1R,3S,5R)-3-[(6-Bromo-3-methylpyridin-2-yl)carbamoyl]-5-methyl-2-azabicyclo[3.1.0]hexan-2-yl]-2-oxoethyl}-N-ethyl-5-(2-methylpyrimidin-5-yl)indazole-3-carboxamide]",< 1 µM
3,"CC(=O)c1cn(CC(=O)N2[C@H](C(=O)Nc3nc(Br)ccc3C)C[C@@]3(C)C[C@@H]23)c2cc(F)c(-c3cnc(C)nc3)cc12 [Compound 482, (1R,3S,5R)-2-(2-(3-acetyl-6-fluoro-5-(2-methylpyrimidin-5-yl)-1H-indol-1-yl)acetyl)-N-(6-bromo-3-methylpyridin-2-yl)-5-methyl-2-azabicyclo[3.1.0]hexane-3-carboxamide]",< 1 µM
4,"CC(=O)c1c(C)n(CC(=O)N2[C@H](C(=O)Nc3nc(Br)ccc3C)C[C@@]3(C)C[C@@H]23)c2ccc(-c3cnc(C)nc3)cc12 [Compound 483, (1R,3S,5R)-2-(2-(3-acetyl-2-methyl-5-(2-methylpyrimidin-5-yl)-1H-indol-1-yl)acetyl)-N-(6-bromo-3-methylpyridin-2-yl)-5-methyl-2-azabicyclo[3.1.0]hexane-3-carboxamide]",< 1 µM
5,"CC(=O)c1nn(CC(=O)N2[C@H](C(=O)Nc3nc(Br)c(F)cc3C)C[C@@]3(Cc4nnc(C)o4)C[C@@H]23)c2c(C)cc(-c3cnc(C)nc3)cc12 [Compound 484, (1R,3S,5R)-2-(2-(3-acetyl-7-methyl-5-(2-methylpyrimidin-5-yl)-1H-indazol-1-yl)acetyl)-N-(6-bromo-5-fluoro-3-methylpyridin-2-yl)-5-((5-methyl-1,3,4-oxadiazol-2-yl)methyl)-2-azabicyclo[3.1.0]hexane-3-carboxamide]",< 1 µM
6,"CC(=O)c1nn(CC(=O)N2[C@H](C(=O)Nc3nc(Br)c(F)cc3C)C[C@@]3(Cc4nnc(C)o4)C[C@@H]23)c2c(C)nc(-c3cnc(C)nc3)cc12 [Compound 485, (1R,3S,5R)-2-(2-(3-acetyl-7-methyl-5-(2-methylpyrimidin-5-yl)-1H-pyrazolo[3,4-c]pyridin-1-yl)acetyl)-N-(6-bromo-5-fluoro-3-methylpyridin-2-yl)-5-((5-methyl-1,3,4-oxadiazol-2-yl)methyl)-2-azabicyclo[3.1.0]hexane-3-carboxamide]",< 1 µM
7,"CC(=O)c1nn(CC(=O)N2[C@H](C(=O)Nc3nc(Br)ccc3Cl)C[C@@]3(Cc4nnc(C)o4)C[C@@H]23)c2c(C)cc(-c3cnc(C)nc3)cc12 [Compound 486, (1R,3S,5R)-2-(2-(3-acetyl-7-methyl-5-(2-methylpyrimidin-5-yl)-1H-indazol-1-yl)acetyl)-N-(6-bromo-3-chloropyridin-2-yl)-5-((5-methyl-1,3,4-oxadiazol-2-yl)methyl)-2-azabicyclo[3.1.0]hexane-3-carboxamide]",< 1 µM
8,"CCCNC(=O)c1nn(CC(=O)N2[C@H](C(=O)NCCC)C[C@@]3(C)C[C@@H]23)c2ccc(-c3cnc(C)nc3)cc12 [Compound 487, 1-(2-((1R,3S,5R)-5-methyl-3-(propylcarbamoyl)-2-azabicyclo[3.1.0]hexan-2-yl)-2-oxoethyl)-5-(2-methylpyrimidin-5-yl)-N-propyl-1H-indazole-3-carboxamide]",1 to 10 µM
9,"CCCCNC(=O)[C@@H]1C[C@@]2(C)C[C@H]2N1C(=O)Cn1nc(C(C)=O)c2cc(-c3cnc(C)nc3)ccc21 [Compound 488, (1R,3S,5R)-2-(2-(3-acetyl-5-(2-methylpyrimidin-5-yl)-1H-indazol-1-yl)acetyl)-N-butyl-5-methyl-2-azabicyclo[3.1.0]hexane-3-carboxamide]",< 1 µM
10,"CC(=O)c1nn(CC(=O)N2[C@H](C(=O)Nc3cc(C)cc(Br)n3)C[C@@]3(C)C[C@@H]23)c2ccc(-c3cnc(C)nc3)cc12 [Compound 492, (1R,3S,5R)-2-(2-(3-acetyl-5-(2-methylpyrimidin-5-yl)-1H-indazol-1-yl)acetyl)-N-(6-bromo-4-methylpyridin-2-yl)-5-methyl-2-azabicyclo[3.1.0]hexane-3-carboxamide]",< 1 µM
11,"CC(=O)c1nn(CC(=O)N2[C@H](C(=O)Nc3cc(C(=O)O)cc(Br)n3)C[C@@]3(C)C[C@@H]23)c2ccc(-c3cnc(C)nc3)cc12 [Compound 493, 2-[(1R,3S,5R)-2-{2-[3-Acetyl-5-(2-methylpyrimidin-5-yl)indazol-1-yl]acetyl}-5-methyl-2-azabicyclo[3.1.0]hexane-3-amido]-6-bromopyridine-4-carboxylic Acid]",< 1 µM
12,"COc1cc(-c2cnc(C)nc2)cc2c(C(C)=O)nn(CC(=O)N3[C@H](C(=O)Nc4nc(Br)ccc4C)C[C@@]4(C)C[C@@H]34)c12 [Compound 494, (1R,3S,5R)-2-(2-(3-acetyl-7-methoxy-5-(2-methylpyrimidin-5-yl)-1H-indazol-1-yl)acetyl)-N-(6-bromo-3-methylpyridin-2-yl)-5-methyl-2-azabicyclo[3.1.0]hexane-3-carboxamide]",< 1 µM
13,"CC(=O)c1nn(CC(=O)N2[C@H](C(=O)NCC(=O)O)C[C@@]3(C)C[C@@H]23)c2c(C)cc(-c3cnc(C)nc3)cc12 [Compound 495, ((1R,3S,5R)-2-(2-(3-acetyl-7-methyl-5-(2-methylpyrimidin-5-yl)-1H-indazol-1-yl)acetyl)-5-methyl-2-azabicyclo[3.1.0]hexane-3-carbonyl)glycine]",1 to 10 µM
14,"CC(=O)c1nn(CC(=O)N2[C@H](C(=O)NCCC(=O)O)C[C@@]3(C)C[C@@H]23)c2c(C)cc(-c3cnc(C)nc3)cc12 [Compound 497, 3-((1R,3S,5R)-2-(2-(3-acetyl-7-methyl-5-(2-methylpyrimidin-5-yl)-1H-indazol-1-yl)acetyl)-5-methyl-2-azabicyclo[3.1.0]hexane-3-carboxamido)propanoic acid]",< 1 µM
15,"CC(=O)c1nn(CC(=O)N2[C@H](C(=O)NCCCC(=O)O)C[C@@]3(C)C[C@@H]23)c2c(C)cc(-c3cnc(C)nc3)cc12 [Compound 498, 4-((1R,3S,5R)-2-(2-(3-acetyl-7-methyl-5-(2-methylpyrimidin-5-yl)-1H-indazol-1-yl)acetyl)-5-methyl-2-azabicyclo[3.1.0]hexane-3-carboxamido)butanoic acid]",< 1 µM

# Same assay, conditions: Table 8; Factor D 80 nM, substrate Z-L-Lys-SBz; read-out: IC50
row,Structure (SMILES),IC50
1,CCCNC(=O)c1nn(CC(=O)N2[C@H](C(=O)Nc3nc(Br)ccc3C)C[C@@]3(C)C[C@@H]23)c2ccc(-c3cnc(C)nc3)cc12 [Compound 475],< 1 µM
2,CCCCNC(=O)c1nn(CC(=O)N2[C@H](C(=O)Nc3nc(Br)ccc3C)C[C@@]3(C)C[C@@H]23)c2ccc(-c3cnc(C)nc3)cc12 [Compound 476],< 1 µM
3,"CCCCCNC(=O)c1nn(CC(=O)N2[C@H](C(=O)Nc3nc(Br)ccc3C)C[C@@]3(C)C[C@@H]23)c2ccc(-c3cnc(C)nc3)cc12 [Compound 477, 1-(2-((1R,3S,5R)-3-((6-bromo-3-methylpyridin-2-yl)carbamoyl)-5-methyl-2-azabicyclo[3.1.0]hexan-2-yl)-2-oxoethyl)-5-(2-methylpyrimidin-5-yl)-N-pentyl-1H-indazole-3-carboxamide]",> 10 µM
4,"Cc1ncc(-c2ccc3c(c2)c(C(=O)NCC2CC2)nn3CC(=O)N2[C@H](C(=O)Nc3nc(Br)ccc3C)C[C@@]3(C)C[C@@H]23)cn1 [Compound 478, 1-(2-((1R,3S,5R)-3-((6-bromo-3-methylpyridin-2-yl)carbamoyl)-5-methyl-2-azabicyclo[3.1.0]hexan-2-yl)-2-oxoethyl)-N-(cyclopropylmethyl)-5-(2-methylpyrimidin-5-yl)-1H-indazole-3-carboxamide]",< 1 µM
5,Cc1ncc(-c2ccc3c(c2)c(C(=O)NCC2CCC2)nn3CC(=O)N2[C@H](C(=O)Nc3nc(Br)ccc3C)C[C@@]3(C)C[C@@H]23)cn1 [Compound 479],1 to 10 µM
6,Cc1ncc(-c2ccc3c(c2)c(C(=O)NCC(C)(C)C)nn3CC(=O)N2[C@H](C(=O)Nc3nc(Br)ccc3C)C[C@@]3(C)C[C@@H]23)cn1 [Compound 480],> 10 µM
7,"Cc1ncc(-c2ccc3c(c2)c(C(=O)NCCN)nn3CC(=O)N2[C@H](C(=O)Nc3nc(Br)ccc3C)C[C@@]3(C)C[C@@H]23)cn1 [Compound 489, N-(2-aminoethyl)-1-(2-((1R,3S,5R)-3-((6-bromo-3-methylpyridin-2-yl)carbamoyl)-5-methyl-2-azabicyclo[3.1.0]hexan-2-yl)-2-oxoethyl)-5-(2-methylpyrimidin-5-yl)-1H-indazole-3-carboxamide]",1 to 10 µM
8,"CNCCNC(=O)c1nn(CC(=O)N2[C@H](C(=O)Nc3nc(Br)ccc3C)C[C@@]3(C)C[C@@H]23)c2ccc(-c3cnc(C)nc3)cc12 [Compound 490, 1-(2-((1R,3S,5R)-3-((6-bromo-3-methylpyridin-2-yl)carbamoyl)-5-methyl-2-azabicyclo[3.1.0]hexan-2-yl)-2-oxoethyl)-N-(2-(methylamino)ethyl)-5-(2-methylpyrimidin-5-yl)-1H-indazole-3-carboxamide]",1 to 10 µM
9,"Cc1ncc(-c2ccc3c(c2)c(C(=O)NCCN(C)C)nn3CC(=O)N2[C@H](C(=O)Nc3nc(Br)ccc3C)C[C@@]3(C)C[C@@H]23)cn1 [Compound 491, 1-(2-((1R,3S,5R)-3-((6-bromo-3-methylpyridin-2-yl)carbamoyl)-5-methyl-2-azabicyclo[3.1.0]hexan-2-yl)-2-oxoethyl)-N-(2-(dimethylamino)ethyl)-5-(2-methylpyrimidin-5-yl)-1H-indazole-3-carboxamide]",> 10 µM
